Experimental data: US20240238228A1, “COMPOSITIONS AND METHODS FOR TREATING ALLERGIES AND INFLAMMATORY CONDITIONS” (UNIVERSITY OF PITTSBURGH-OF THE COMMONWEALTH SYSTEM OF …, priority 2021, published 2024)

Tests used:
[1] = tested on: passive cutaneous anaphylaxis (PCA); test: Passive cutaneous anaphylaxis (PCA) in mice; type: in vivo, mouse
Protocol: Mouse ears were measured with a micrometer then sensitized with IgE in filter-sterilized PBS (Sigma, clone SPE-7, 20 ng/50 μl/ear) or vehicle control. Twenty-four hours later mice were treated with NKA (10 μg/ear, intradermal) or vehicle (PBS) 3 h prior to Ag (DNP-HSA 100 μg, in 200 μl, intravenous in saline) administration. Data are presented as change in ear thickness between baseline and the indicated time. […] Edema was evaluated histologically and as a function of Evans blue dye extravasation. For histological evaluation, mice were euthanized 2 h after PCA induction. Paraformaldehyde (4.0%) fixed ears were processed for hematoxylin and eosin staining. Pathology was blindly evaluated on an Axiostar plus microscope equipped with epifluorescence and a digital camera (AxioCam; Zeiss). For dye extravasation, Ag was delivered in 1.0% Evans blue dye. Ninety min later mice were euthanized, and ears were excised. Dye was extracted in DriSolv (EMD Millipore) and quantified as absorbance at OD 650 nm. Data are shown as OD650/mg of tissue. Cytokine expression in the skin was investigated 24 h after PCA induction. Mice were euthanized, ears excised, and tissue homogenized in T-PER (ThermoFisher) with Protease Inhibitor Cocktail (Sigma). Protein concentrations were quantified using the BCA Protein Assay (Pierce). The protein profile of skin homogenates was characterized with C-Series Mouse Cytokine Antibody Array C1 (RayBiotech). Densitometry values subtracting the median background from individual spot areas were calculated with ImageStudioLite v5.2.5. The densitometry value from each cytokine spot was divided by the mean densitometry of positive control spots to give relative protein expression. Data were from each experiment were normalized as (Relative Expression [Treated]/Relative expression [Vehicle]). In some experiments, ELISAs were performed on skin homogenates. Neutrophil influx was evaluated as a function of myeloperoxidase (MPO) activity. To detect MPO activity, tissue was homogenized with a Next Advance Bullet Homogenizer in 50 mM KPG4 with 50 mM […]. Homogenate was incubated with ODP (Sigma) with 0.005% H2O2 for 30 minutes. Enzymatic reactions were stopped with 1N HCl and absorbance was read at 450 nm.

[2] = tested on: BMMCs; test: IgE+Ag-activated BMMCs: cytokine release (ELISA) and RNA (RT-PCR); type: cell-based, murine
Protocol: Mast cells were differentiated from murine bone marrow as has been described. In brief, marrow was expunged from the femurs and tibias of female mice. Cultures were maintained in complete MC/9 medium containing recombinant murine IL-3 (25 ng/mL, Peprotech) for 4-6 weeks prior to use. Peritoneal MCs (PMCs) were expanded from peritoneal washes with MC/9 medium supplemented with IL-3 (25 ng/mL) and SCF (Peprotech, 10 ng/mL) for 21 days. Purity of BMMCs and PMCs was confirmed to be greater than 95% (FIG. 8A). To initiate signaling via the FcεRI, MCs were loaded with IgE (1.0 μg/ml, clone SPE-7, Sigma) for a minimum of 1 h then crosslinked with dinitrophenyl-human serum albumin (DNP-HSA, 100 ng/mL or as indicated). NKA (either LifeTein (Summerset, NJ) or Phoenix Pharmaceuticals (Burlingham, CA)) stock solutions were prepared in tissue culture grade water (100 μM) and stored at -20° C. for a maximum of 30 days. Glyburide (Cayman Chemical) was prepared in DMSO then diluted in PBS. Calpain activity was detected from cell-free supernatants using the Calpain-Glo Protease Assay (Promega). Supernatants were incubated with substrate for 10 min prior to luminescent detection. In some experiments, glyburide or vehicle (0.1% DMSO) were added to cells 10 min prior to Ag. ELISA kits from eBioscience (IL-13), BioLegend, (TNF and IL-10) or RayBiotech (NKA) and used in accord with the manufacturer's recommendations. […] Total RNA was isolated from either MCs or murine ear tissue 3 h hours after NKA injection. Tissue was homogenized in Navy RINO tubes (Next Advance) in a Bullet Blender Storm (Next Advance). RNA was extracted per standard methods with Trizol (Invitrogen). cDNA was reversed transcribed with the Quantitech Reverse Transcription Kit (Qiagen). PCR products were amplified with Fast SybrGreen (ABI) on a StepOne Plus Cycler ([…]) using the following primers: TNF […] NO: 5), TNF […] NO: 6); IL13 […] NO: 7), IL13 […] NO: 8); IL10 […] NO: 9); IL10 […] NO: 10); Bactin […] NO: 11); Bactin […] NO: 12). Data are presented as 2^-ΔΔCT using f-actin as the housekeeping gene and normalizing to either untreated cells or naïve control mice.

[3] = tested on: IL10-eGFP^+ MCs; test: IL-10-GFP expression in skin mast cells of VERT-X reporter mice; type: in vivo, mouse; conditions: with and without PCA induction
Protocol: C6(Cg)-IL10^tm1.1.Karp/J (VERT-X) mice (Jackson Laboratories) were bred at the University of Pittsburgh. On d0, mice were treated with vehicle on one ear and IgE on the contralateral ear. On day 1, mice were treated with either NKA ([…]) on both ears or vehicle on both ears. Three hours later, PCA was induced. On day 2, mice were euthanized. Excised Ear tissue was digested in IMDM media (Life Technologies) containing collagenase D (Sigma, 1.0 mg/mL) and DNAase (Roche, 1.0 mg/mL) at 37 C for 45 minutes. Single cell homogenates were blocked with FcBlock and stained. In some experiments, avidin AlexaFluro488 was injected intradermally to label cutaneous mast cells were labelled in vivo. Mice were euthanized 7 days after injection.
In other methods, mast cells differentiated for 5-7 weeks (BMMCs) or 3-4 weeks (PMCs) were collected, blocked with FcBlock and stained with anti-FceRI PE (clone MAR-1, Biolegend), anti-CD117 eFluor 450 clone 2B8, ThermoFisher) and anti-NK2R Alexa Fluor 647 or rabbit IgG Alexa Fluor 647 isotype control (Cell Signaling Technology). […]

[4] = 24 h after PCA induction, NKA pretreatment
[5] = 24 h after PCA induction, NKA pretreatment, listed as Neurokinin A
[6] = NKA 10 μg/ear intradermal 3 h prior to Ag
[7] = IL-10 KO BMMCs (absence of autocrine IL-10)
[8] = overnight activation with IgE+Ag in the presence of NKA

**Q.** Which results are given for `COc1ccc(Cl)cc1C(=O)NCCc1ccc(S(=O)(=O)NC(=O)NC2CCCCC2)cc1` [glyburide, reference compound]?
**A.** ear thickness at 24 h ([1]; glyburide 2.5 mg/kg i.p. 3 h prior to PCA induction): significantly reduced; NKA-mediated inhibition with added glyburide ([2]; glyburide and NKA (1000 nM), BMMCs or PMCs, 20-24 h): did not further increase; detectible levels of IL-10 ([2]; glyburide, 20-24 h in culture): increased; levels of IL-13 ([2]; glyburide, 20-24 h in culture): decreased; levels of TNF ([2]; glyburide, 20-24 h in culture): decreased

**Q.** Neurokinin A [NKA] was tested. Which “increase in percentage of IL10-eGFP^+ MCs” value [3] did it give?
**A.** The value was “two-fold”.

**Q.** What about the “IFNγ levels in skin (protein array)” value [1, 4] of the same compound?
**A.** Its value is “not statistically significant, IFNγ levels increased”.

**Q.** And the “IL-3 in IgE-treated skin (protein array)” value [1, 4]?
**A.** Its value is “significantly reduced”.

**Q.** What about the “IL-6 in IgE-treated skin (protein array)” value [1, 4] of the same compound?
**A.** The value was “significantly reduced”.

**Q.** What about the “IL-13 in IgE-treated skin (protein array)” value [1, 4] of the same compound?
**A.** The value was “down-regulated”.

**Q.** What about the “MCP1 in IgE-treated skin (protein array)” value [1, 4] of the same compound?
**A.** Its value is “significantly reduced”.

**Q.** And the “RANTES in IgE-treated skin (protein array)” value [1, 4]?
**A.** Its value is “significantly reduced”.

**Q.** And the “TNF in IgE-treated skin (protein array)” value [1, 4]?
**A.** The value was “down-regulated”.

**Q.** What about the “IL-13 in IgE-treated skin (protein array)” value [1, 5] of the same compound?
**A.** The value was “significantly reduced”.

**Q.** And the “TNF in IgE-treated skin (protein array)” value [1, 5]?
**A.** The value was “significantly reduced”.

**Q.** And the “Evans blue dye extravasation” value ([1]; Mcpt5Cre^+×IL10/l mice)?
**A.** Its value is “no effect”.

**Q.** What about the “Evans blue dye extravasation” value ([1]; Mcpt5Cre^+×IL10^WT mice) of the same compound?
**A.** Its value is “inhibited”.

**Q.** What about the “IL-13 in the skin by ELISA” value ([1]; Mcpt5 Cre^+×IL10^WT mice, 24 h) of the same compound?
**A.** Its value is “significantly downregulated”.

**Q.** And the “TNF in the skin by ELISA” value ([1]; Mcpt5 Cre^+×IL10^WT mice, 24 h)?
**A.** Its value is “significantly downregulated”.

**Q.** And the “immune-regulatory capacity (ear measurements) at 2 h and 24 h after PCA induction” value ([1]; Mcpt5Cre^+×IL10^fl/fl mice)?
**A.** The value was “lost”.

**Q.** What about the “ear thickness, early (1-2 hours) phase of PCA” value [1, 6] of the same compound?
**A.** The value was “reduced ear thickness”.

**Q.** What about the “ear thickness, late phase of PCA (24 h)” value [1, 6] of the same compound?
**A.** Its value is “reduced ear thickness”.

**Q.** What about the “Evans blue dye extravasation” value ([1]; NKA 10 μg/ear intradermal 3 h prior to Ag, 90 min after Ag) of the same compound?
**A.** Its value is “reduced Evans blue dye extravasation”.

**Q.** What about the “edema in histological sections, early phase of PCA” value ([1]; NKA 10 μg/ear intradermal 3 h prior to Ag, 2 h after PCA induction) of the same compound?
**A.** Its value is “a reduction in edema”.

**Q.** What about the “IL-10 protein in total skin homogenates” value ([1]; NKA pretreated mice) of the same compound?
**A.** Its value is “did not increase”.

**Q.** What about the “myeloperoxidase activity in skin homogenates, 24 h” value ([1]; NKA pretreatment) of the same compound?
**A.** The value was “reduced myeloperoxidase activity”.

**Q.** And the “neutrophil influx in histological sections, late phase (24 h)” value ([1]; NKA pretreatment)?
**A.** The value was “reduced neutrophil influx”.

**Q.** And the “IL-13 in the skin” value ([1]; absence of MC-derived IL-10)?
**A.** The value was “increased”.

**Q.** And the “TNF in the skin” value ([1]; absence of MC-derived IL-10)?
**A.** Its value is “increased”.

**Q.** What about the “PCA, including degranulation-associated edema” value ([1]; overall statement) of the same compound?
**A.** Its value is “fully inhibited”.

**Q.** And the “IL10 RNA” value ([2]; 60 min after activation)?
**A.** The value was “increased”.

**Q.** What about the IL13 transcription ([2]; 60 min after activation) of the same compound?
**A.** The IL13 transcription was “inhibited”.

**Q.** And the TNF transcription ([2]; 60 min after activation)?
**A.** Its TNF transcription is “inhibited”.

**Q.** What about the IL-13 release [2, 7] of the same compound?
**A.** The IL-13 release was “did not inhibit”.

**Q.** And the TNF release [2, 7]?
**A.** The TNF release was “did not inhibit”.

**Q.** What about the IL-13 release [2, 8] of the same compound?
**A.** Its IL-13 release is “inhibited”.

**Q.** What about the TNF release [2, 8] of the same compound?
**A.** The TNF release was “inhibited”.

**Q.** And the “IL-10 protein in supernatants” value ([2]; overnight culture with NKA)?
**A.** Its value is “significant increase”.
